Source: patent US20240050449A1, “Use of Acetyltanshinone IIA in Preparation of Medicament for Treating Lung Cancer and Medicament for Treating Lung Cancer” (UNIVERSITY OF MACAU, priority 2022, published 2024)

Key:
A549 and H1650 cells = test: Protein synthesis rate (click-iT HPG Alexa Fluor 594 Protein Synthesis Assay Kit); assay type: cell-based; details: 2 μM, 48 h
Procedure: In FIG. 3 (A) is protein levels of p-Akt, Akt, p-mTOR, mTOR, p-p70S6K, p70S6K, p-S6RP, and S6RP determined by Western blot analysis for A549, H358, H1975, and H1650 cells treated with ATA (1 or 2 μM) for 48 h. (B) is A549 and H1650 cells treated with ATA (1 or 2 μM) or the protein synthesis inhibitor […] (CHX, 35 μM), respectively, for 48 h. The rate of protein synthesis was determined using the click-iT™ HPG Alexa Fluor™ 594 Protein Synthesis Assay Kit. The intensity of Texas Red fluorescence in the stained image represents the rate of protein synthesis. Quantification of the rate of protein synthesis is shown. ****P<0.0001 was based on a one-way analysis of variance followed by Tukey's multiple comparison test. Scale bar, 50 μm. […] Protein levels of p-p70S6K. p70S6K. p-S6RP, and S6RP were determined by Western blot analysis. […] The rate of protein synthesis was determined using the click-iT™ HPG Alexa Fluor™ 594 Protein Synthesis Assay Kit. The intensity of Texas Red fluorescence in the stained image represents the rate of protein synthesis. Quantification of the rate of protein synthesis is shown. *P<0.05 and **P<0.01 were based on a one-way analysis of variance followed by Tukey's multiple comparison test. […] Protein levels of p70S6K. p-p70S6K, S6RP, and p-S6RP were determined by Western blot analysis. […] Data are expressed as the mean±SD of three independent experiments.

p70S6K = target: T1, p70S6K (Homo sapiens, UniProt P23443); test: Western blot, p70S6K protein levels in drug-resistant NSCLC cells; assay type: cell-based; details: A549 and H1650 cells, 2 μM, 48 h
T1 construct: endogenous in cells; host or cells: A549, H358, H1975, H1650 for the Western blots
Procedure: (§1) Cells were washed once with PBS and frozen in RIPA lysis buffer containing protease and phosphatase inhibitors (Sigma-Aldrich) for 30 min. After sonication and centrifugation, the total protein concentration was determined by protein assay using Bio-Rad concentrated dye reagent (Bio-Rad). Equal amounts of protein ([…]) from each sample were separated by SDS-PAGE and electrotransferred to nitrocellulose membranes (GE Healthcare). Detection was performed on the membrane with a 1:1000 dilution of specific primary antibody followed by incubation with a 1:2000 dilution of the HRP conjugated secondary antibody. Finally, immunoreactivity is detected with a chemiluminescent substrate (Clarity Western ECL substrate; Bio-Rad). EGFR (#4267S), MET (#8198S), p-Akt (#9271L), akt (#9272S), p-mTOR (#5536S), mTOR (#2983S), p-p70S6K (#9234S), p70S6K (#2708S), p-S6RP (#4857S), S6RP (#2217S), p-4E-BP1 (#9455S) antibodies. 4E-BP1 (#9644S), p53 (#2527S), p21 waf1/Cip1 (#2947S), survivin (#2808S), cyclin B1 (#12231S), cyclin D3 (#2936S) and GAPDH (#2118S) were purchased from Cell Signaling Technology. Aurora A (#ab13824) and PLK1 (#ab189139) antibodies were from Abcam.

EGFR = test: Western blot, EGFR protein levels in drug-resistant NSCLC cells; assay type: cell-based; details: A549 and H1650 cells, 2 μM, 48 h
Procedure: as §1, with “EGFR (#4267S), MET (#8198S), p-Akt (#9271L), akt (#9272S), p-mTOR (#5536S), mTOR (#2983S), p-p70S6K (#9234S), p70S6K (#2708S), p-S6RP (#4857S), S6RP (#2217S), p-4E-BP1 (#9455S) antibodies. 4E-BP1 (#9644S), p53 (#2527S), p21 waf1/Cip1 (#2947S), survivin (#2808S), cyclin B1 (#12231S), cyclin D3 (#2936S) and GAPDH (#2118S) were purchased from Cell Signaling Technology.” left out

H1975 cells [1] = test: Spheroid formation experiment, H1975 cells; assay type: cell-based; details: 2 μM, 0 to 8 days
Text: The density of H1975 was 500 cells per well and the density of H1650 was 1000 cells per well in an ultra-low adhesion round bottom 96 well plate (Corning, #7007).

[2] = Body weight, deaths and toxicity in the xenograft study; details: 25 mg/kg intraperitoneally every 3 days for 31 days
Procedure: (§2) Cell line xenograft experiments were performed in 6-week-old female nude mice, 4×10^6 A549 cells were mixed 1:1 with matrigel-basement membrane matrix (Corning) and injected subcutaneously into nude mice. Tumors were allowed to grow to around […] and mice were randomly selected to receive treatment with ATA (25 mg/kg) or Erlotinib (25 mg/kg) intraperitoneally every 3 days for 31 days. ATA was formulated with 25% ethanol, 60% PEG300 (Sigma-Aldrich), and 15% Tween 80 (Sigma-Aldrich). Erlotinib was formulated in 5% DMSO, 30% PEG300, 5% Tween 80 and 60% H2O. Mouse body weight and tumor volume were measured every 3 days by a scale and caliper. Tumor volume (mm^3) was calculated using the formula. π/6×length (mm)×[width (mm)]^2. At least 6 mice in the control and treatment groups were evaluated during the study. All mice were sacrificed after 31 days of drug treatment, tumors were collected, and tumor weights were recorded. All animal studies were conducted in accordance with the requirements of the Animal Research Ethics Committee of Macao University and in compliance with all relevant ethical requirements.
(§3) To determine if ATA could also produce the same effect in vivo, this example injected A549 cells subcutaneously into nude mice to form tumor xenografts. Mice were randomly assigned to three groups. When the size of each tumor increased to a volume of approximately 100 mm^3, mice were injected intraperitoneally with vehicle control, ATA (25 mg/kg), or Erlotinib (25 mg/kg) every 3 days for 31 days. The tumor size and body weight of each mouse were measured every 3 days until the end of the animal experiment on day 31.

[3] = tested on: A549 cell-derived xenograft tumors; test: Mouse xenograft study; assay type: in vivo, nude mice; details: 25 mg/kg intraperitoneally every 3 days, day 31
Procedure: as §2, §3

A549 cells [4] = test: Transwell Matrigel invasion assay; assay type: cell-based; details: 1 μM
Procedure: (§4) Cell migration and invasion assays were performed in a transwell chamber (Corning, #3422) with a pore size of 8 μm. Cells were treated with different concentrations of ATA and Erlotinib for 48 h, then harvested and resuspended in a serum-free medium. Cells (1×10^4) were added to the upper side of the transwell chamber and fresh medium containing 10% FBS was added to the lower side. Cells were allowed to migrate from the upper side to the lower side of the chamber at 37° C. for 24 h. Membranes from the cell chamber were fixed with 4% paraformaldehyde for 20 min. The cells remaining on the upper side of the membrane were gently removed with a cotton swab and stained with 1% crystal violet for 20 min to stain the cells migrating to the other side of the transwell chamber. The membrane was then cut and fixed on a glass slide. The migrated cells on each slide were imaged with a Leica M165-FC microscope. For the transwell invasion assay, a Matrigel solution (Corning, #356230) was diluted to one-thirtieth with serum-free medium and applied to the upper side of the precoated chamber for 2 h, after the Matrigel had solidified, the cells were added to the upper side of the transwell chamber. The following procedure is identical to the migration assay. Migrated and invaded cells were quantified using ImageJ software.

H1975 cells [5] = test: MTT cell viability assay, H1975 cells; assay type: cell-based; details: Homo sapiens, NCI-H1975, MTT, 72 h
Procedure: (§5) Cells were seeded at a density of 3×10^3 per well in 96-well plates, allowed to attach overnight, and treated with various concentrations of agent. After 72 h of treatment, 10 μL of MTT solution (5 mg/mL) was added to each well and cultured in the plate for 4 h. The crystallized formazan was dissolved in 100 μL of 10% (w/v) SDS and 0.01 mol/L HCl solution for 24 h, and then the value was read by spectrophotometry at 595 nm using a microplate reader.

H1650 cells [6] = test: Spheroid formation experiment, H1650 cells; details: 2 μM, 0 to 8 days
H1650 cells [7] = test: MTT cell viability assay, H1650 cells; assay type: cell-based; details: Homo sapiens, NCI-H1650, MTT, 72 h
Procedure: as §5

[8] = tested on: drug-resistant NSCLC cells (A549, H358, H1975, H1650); test: MTT assay, summary over all four cell lines; assay type: cell-based; details: A549, H358, H1975, H1650; MTT, 72 h; read-out: IC50 values, range over the four cell lines
Procedure: as §5

H358 cells = test: MTT cell viability assay, H358 cells; assay type: cell-based; details: Homo sapiens, NCI-H358, MTT, 72 h
Procedure: as §5

A549 cells [9] = test: MTT cell viability assay, A549 cells; assay type: cell-based; details: Homo sapiens, MTT, 72 h
Procedure: as §5

A549 cells [10] = test: Transwell cell migration assay; assay type: cell-based; details: 1 μM
Procedure: as §4

T1 sequence (P23443 whole entry): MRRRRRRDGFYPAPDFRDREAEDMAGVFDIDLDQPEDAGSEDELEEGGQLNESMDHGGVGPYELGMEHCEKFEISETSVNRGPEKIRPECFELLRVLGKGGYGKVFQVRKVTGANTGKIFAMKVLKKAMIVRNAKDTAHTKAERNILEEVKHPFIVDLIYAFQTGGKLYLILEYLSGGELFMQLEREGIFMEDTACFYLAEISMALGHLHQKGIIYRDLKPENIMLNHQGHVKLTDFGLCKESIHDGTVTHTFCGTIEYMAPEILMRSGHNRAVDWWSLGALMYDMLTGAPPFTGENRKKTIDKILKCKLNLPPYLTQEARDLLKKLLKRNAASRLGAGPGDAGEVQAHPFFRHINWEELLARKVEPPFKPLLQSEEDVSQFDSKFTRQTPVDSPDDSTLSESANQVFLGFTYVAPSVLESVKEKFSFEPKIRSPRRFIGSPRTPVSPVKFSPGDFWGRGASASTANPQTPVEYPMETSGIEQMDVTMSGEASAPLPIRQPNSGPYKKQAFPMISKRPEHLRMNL

| Compound | reduction (inhibition ratio) of protein synthesis (A549 and H1650 cells) | levels of p70S6K (p70S6K) | protein levels of EGFR (EGFR) | spheroid growth / sphere size (H1975 cells [1]) | deaths during the treatment period [2] | weight of nude mice compared between groups [2] | reduction of tumor size compared to the control group [3] | reduction of tumor weight [3] | reduction of invasion ability (A549 cells [4]) | IC50 (H1975 cells [5]) | spheroid growth / sphere size (H1650 cells [6]) | IC50 (H1650 cells [7]) | IC50 [8] | IC50 (H358 cells) | IC50 (A549 cells [9]) | reduction of migration ability (A549 cells [10]) |
| --- | --- | --- | --- | --- | --- | --- | --- | --- | --- | --- | --- | --- | --- | --- | --- | --- |
| CCc1cncnc1N1CCN(Cc2nc3ccc(C(F)(F)F)cc3[nH]2)CC1 [PF-4708671, reference compound] | did not affect | did not decrease | – | – | – | – | – | – | – | – | – | – | – | – | – | – |
| C#Cc1cccc(Nc2ncnc3cc(OCCOC)c(OCCOC)cc23)c1 [Erlotinib, reference compound] | – | – | significantly increased | did not decrease but significantly increased | no mice died | no difference | 32.5% | did not significantly reduce | did not | 10.6 ± 1.27 µM | less inhibition in H1650 cells than ATA | 22.1 ± 0.59 µM | 10 to 22 µM | 21.5 ± 1.47 µM | 19.6 ± 0.28 µM | did not |
| CO[C@H]1C[C@@H]2CC[C@@H](C)[C@@](O)(O2)C(=O)C(=O)N2CCCC[C@H]2C(=O)O[C@H]([C@H](C)C[C@@H]2CC[C@@H](O)[C@H](OC)C2)CC(=O)[C@H](C)/C=C(\C)[C@@H](O)[C@@H](OC)C(=O)[C@H](C)C[C@H](C)/C=C/C=C/C=C/1C [Rapamycin, rapamycin] | 25-28% | – | – | – | – | – | – | – | – | – | – | – | – | – | – | – |
